Data as given in US8318812B2, “Therapeutic agents for the treatment of lymphoid malignancies” (The Ohio State University Research Foundation, priority 2006, dated 2012).

Tests used:
[1] = system: MEC, Ramos, Raji, 697 and RS4-11 B cell lines; assay: Annexin V/PI viability by flow cytometry in B cell lines; type: cell-based, Human; settings: 0.6-10 uM FTY720; 24 and 48 hours
Protocol: Cells: Blood was obtained from patients with B-cell CLL with informed consent under a protocol approved by the hospital internal review board. All patients examined in this series had immunophenotypically defined CLL as outlined by the modified 96 National Cancer Institute criteria. B-CLL cells were isolated from freshly donated blood using ficoll density gradient centrifugation (Ficoll-Paque Plus, Amershan Biosciences, Piscataway, N.J.). Isolated mononuclear cells were incubated in RPMI 1640 media (Gibco/Invitrogen, Carlsbad, Calif.) supplemented with 10% heat-inactivated fetal bovine serum (FBS, Hyclone Laboratories, Logan, Utah), 2 mM L-glutamine (Invitrogen, Carlsbad, Calif.), and penicillin (100 U/mL)/streptomycin (100 μg/ml) [Sigma-Aldrich, St. Louis] at 37° C. in an atmosphere of 5% CO2. Freshly isolated B-CLL cells were used in all experiments described herein. […]
Analysis of cell viability and apoptosis: The cell viability was carried out by dual staining with Annexin V conjugated to flourescein-isothyocyanate (FITC) and Propidium iodide (PI) as described previously. Briefly, 1×10^6 cells were stained with Annexin V-FITC (BD Pharmingen) and Propidium iodide (BD Pharmingen) for 15 minutes in dark and analyzed by flow cytometry using a Beckman-Coulter EPICS XL cytometer (Beckman-Coulter, Miami, Fla.). […]

[2] = system: PP2A; assay: PP2A activity in lysates of Ramos B cell line; type: cell-based, Human
Protocol: PP2A Activity: The protein phosphatase activity of total cellular lysate was determined by measuring the generation of free PO4 from the threonine phosphopeptide using the malachite green-phosphate complex assay as described by the manufacturer (Upstate, Charlottesville, […].). Cell lysates were prepared in a low detergent lysis buffer (1% Nonidet P-40, 10 mM HEPES, 0.5M NaCl, 10% Glycerol, 1 mM PMSF, 5 mM Benzamidine, 10 μg/ml leupeptin). The phosphatase assay was performed in a PP2A-specific reaction buffer (Upstate) using 750 μM phosphopeptide substrate. After 30-min incubation at 30° C. malachite dye was added, and free phosphate was measured by optical density at 650 nm. To avoid variability among different immunoprecipitated samples, the phosphatase activities were normalized with the amount of PP2A immunoprecipitated, as detected and quantified by western blot analysis of each treatment group.
In order to determine if FTY720 induced activation of PP2A enzyme in CD19^+ B cells from CLL patients were treated with 10 uM FTY720 for 0, 1, 2, 3, 4 and 15 hrs and the PP2A activity in the lysates were quantified using a functional assay following immunoprecipitation of PP2A enzyme. As reported previously in other systems, FTY720 induced a consistent 2-3 fold increase in PP2A activation with the peak response observed at 4 hour post treatment (FIG. 6a). […]

[3] = system: AML cell lines; assay: Annexin V/PI apoptosis assay in AML cell lines; type: cell-based; settings: 48 hours
Protocol: Cell cultures were exposed to vehicle control and increasing doses of FTY720 for 48 hours. Cells were then stained with Annexin V (AnnV) and propidium iodide (PI), and analyzed using routine flow cytometry. Percentage of viable cells (AnnV− PI−), cells undergoing apoptosis (AnnV+ PI−), and necrotic cells (AnnV+ PI+) are represented for each cell line studied in FIG. 10A.

[4] = system: Jeko cells; assay: Annexin V/PI toxicity in Jeko cells; type: cell-based; settings: Homo sapiens, WinNolin sigmoid inhibitory model
Protocol: Primary MCL cells were isolated from PBMC (with informed patient consent under a protocol approved by IRB) as described before. All the MCL patients were identified as outlined by the World Health Organization (WHO) classification. Human mantle cell lymphoma patient cell lines (Mino and Jeko) were obtained from Dr. Raymond Lai. Primary cells or MCL cell lines were incubated in RPMI 1640 media, supplemented with 10%-20% heat-inactivated fetal bovine serum, 2 mM L-glutamine and penicillin (100 U/mL)/streptomycin ([…]) at 37° C. in an atmosphere of 5% CO2. FTY720 was synthesized as previously described. Toxicity was determined by flow cytometry using Annexin-V-FITC and Propidium Iodide (PI) staining. Apoptotic cells were identified as Annexin-V+ and/or PI+ cells. Cells excluding both FITC and PI were considered viable. Western Blotting was performed as described previously using indicated antibodies. The PARP (Ab-2) and Caspase 9 antibodies were purchased from Oncogene/Calbiochem/EMD Biosciences (San Diego, Calif.). Cyclin D1, Akt, Actin, Mcl-1, p-ERK, ERK and Bcl-2 were obtained from Santa Cruz biotech (Santa Cruz, Calif.).
Several therapeutic agents, including fludarabine, chlorambucil, 2-chloro-2-deoxyadenosine and glucocorticoids, induce toxicity in B cell malignancies through activating caspases, the cysteine proteases of CED3/ICE family. […]

[5] = system: Mino cells; assay: Cell cycle analysis by flow cytometry in Mino cells; type: cell-based, Human; settings: compared to vehicle control
Protocol: Deregulated cyclin D1 expression contributes to cell cycle defects in MCL cells. […] Mino cells were treated with FTY720 for 12, 24 and 48 hrs and subjected to cell cycle analysis by flow cytometry. […] This decrease in S phase is entry is further reflected by accumulation of cells in G1 phase of the cell cycle.

CCCCCCCCc1ccc(CCC(N)(CO)CO)cc1.Cl [FTY720, 2-Amino-2-[2-(4-octylphenyl)ethyl]propane 1,3-diol hydrochloride]
viable cells (Annexin V-/PI-) [1]: dose dependent inhibition of viable cells | earliest time of FTY720 induced PP2A activation [2]: 3 h | apoptosis in AML cell lines [3]: induces apoptosis | IC50 [4]: 4.46 µM | reduction in cells in S-phase [5]: ~48%
